In paper PMC9964404, “Molecular Modeling and In Vitro Evaluation of Piplartine Analogs against Oral Squamous Cell Carcinoma” (Molecules, 2023):
pIC50: −log10 of the molar value. Where two headings read alike, the source gives them in different places.

What was measured:
[1] = test system: SCC4 cells; experiment: MTT cell viability assay, SCC4; format: cell-based, human; conditions: Homo sapiens, SCC-4, 48 h treatment, read-out: SCC4 IC50
Procedure: (§1) SCC cells (SCC9 and SCC4), derived from human tongue OSCC, were obtained by (ATCC® CRL-1629 and CRL-1624) and maintained in DMEM/F12 1:1 medium (Dulbecco’s modified Eagle’s medium and Ham’s F12 medium, Gibco (Thermo Fisher, Waltham, MA, USA), supplemented with 10% (v/v) FBS (Fetal Bovine Serum; Invitrogen, Thermo Fisher, Waltham, MA, USA) and 400 ng/mL hydrocortisone (Sigma-AldrichCo., St. Louis, MO, USA). Primary normal gingival fibroblast human (PCS201 018TM) and other tumor cells B16-F10 (CRL-6475), Hep G2 (HB-8065), and HT-29 (HTB-38) were also obtained at ATCC and maintained in DMEM supplemented with 10% (v/v) FCS. Cells were cultured in a humidified environment containing 5% CO2 at 37 °C. For all experiments, the compounds were solubilized in DMSO (Sigma-Aldrich) for a final concentration of 100 mM. From this dilution, other concentrations were made to carry out the cell viability assay. Carboplatin (Fauldcarbo®; Libbs Farmacêutica, São Paulo, SP, Brazil) was used as a control antitumor compound.
(§2) The viability of cancer cells and primary fibroblasts was tested using the MTT assay as described in MACHADO et al., 2021 [49]. Briefly, cancer cells (5 × 10^3 cells/well) were plated in duplicate in a 96-well plate, as indicated. DMSO was diluted in culture medium at the same concentrations and was used as a negative control, representing 100% cell viability. After 48 h of treatment, cells were incubated for 3.5 h with 5 mg/mL of MTT reagent (3,4,5-dimethiazol-2,5-diphenyltetrazoliumbromide) (Sigma-Aldrich Co., St. Louis, MO, USA) diluted in culture medium. Subsequently, the formazan crystals were dissolved by MTT solvent (50% Methanol and 50% DMSO), and the absorbance was read at 560 nm using the EPOCH microplate spectrophotometer (BioTekInstruments, Winooski, VT, USA).
(§3) IC50 values for the MTT assay were obtained by non-linear regression using GraphPad Prism 5.0 software (GraphPad, San Diego, CA, USA) from at least three independent experiments. Data are presented as means, ± standard deviation (SD). A log dose response (inhibitor) vs. response curve using the least square method was used to determine the IC50 and SD of the data. The selectivity index was calculated as: S.I. = IC50 of the compound in fibroblasts/IC50 of the same compound in tumor cells.

[2] = test system: Primary Gingival Fibroblast; experiment: MTT cell viability assay, normal fibroblasts; format: cell-based, human; conditions: Homo sapiens, Fibroblast, 48 h treatment
Procedure: as §1, §2, §3

[3] = test system: HEP G2 (hepatocarcinoma); experiment: MTT cell viability assay, HEP G2; format: cell-based
Procedure: as §1, with “For all experiments, the compounds were solubilized in DMSO (Sigma-Aldrich) for a final concentration of 100 mM. From this dilution, other concentrations were made to carry out the cell viability assay. Carboplatin (Fauldcarbo®; Libbs Farmacêutica, São Paulo, SP, Brazil) was used as a control antitumor compound.” left out
(§4) The viability of cancer cells and primary fibroblasts was tested using the MTT assay as described in MACHADO et al., 2021 [49]. […] Subsequently, the formazan crystals were dissolved by MTT solvent (50% Methanol and 50% DMSO), and the absorbance was read at 560 nm using the EPOCH microplate spectrophotometer (BioTekInstruments, Winooski, VT, USA).
(§5) IC50 values for the MTT assay were obtained by non-linear regression using GraphPad Prism 5.0 software (GraphPad, San Diego, CA, USA) from at least three independent experiments. […] The selectivity index was calculated as: S.I. = IC50 of the compound in fibroblasts/IC50 of the same compound in tumor cells.

[4] = test system: SCC9 cells; experiment: Phosphatidylserine exposure analysis (annexin V-FITC / P.I., flow cytometry); format: cell-based, human; conditions: SCC9, 48 h
Procedure: Cells of the SCC9 cell line were plated in six-well plates (5 × 10^5 cells/well), trypsinized 48 h after treatment, labeled using the Annexin V-FITC Apoptosis Detection Kit according to the manufacturer’s protocol (#BMS500FI/300, Invitrogen), and analyzed by flow cytometry.

[5] = Hemolysis assay; format: cell-based; conditions: human erythrocytes
Procedure: Human blood was used as approved by the Research Ethics Committee of the Fluminense Federal University–Nova Friburgo, RJ (CAAE: 43134721.4.0000.5626). The erythrocytes were collected by centrifugation at 1500 rpm for 15 min, washed with PBS (phosphate buffer saline) and 10 mM glucose, and counted in an automatic cells counter (Thermo Fisher, Waltham, MA, USA). The erythrocytes were then plated in 96-well plates at a concentration of 4 × 10^8/well in triplicate, and 10 µL of the compounds were added at a final concentration of 1000 µM in PBS with glucose (final volume of 100 µL). Ten microliters of PBS were used as negative control and 10 µL of PBS with 0.1% Triton ×100 as a positive control. Data reading was performed with EPOCH (BioTek Instruments, Winooski, VT, USA) at 540 nm absorbance, and statistical data were generated with the GRAPHPAD Prism 5.0 program (Intuitive Software for Science, San Diego, CA, USA).

[6] = test system: SCC9 cells; experiment: SubG1 analysis (propidium iodide DNA content); format: cell-based, human; conditions: SCC9, 48 h
Procedure: (§6) To evaluate the action of the compound 9 on the cell cycle, cells of the SCC9 lineage were plated in a six-well plate (5 × 10^5 cells/well) as described in LUCENA et al., 2016. After 48h of treatment, cells were trypsinized and stained with propidium iodide (75 µM; Sigma) in the presence of NP-40 (Sigma). DNA content was analyzed by collecting 10,000 events using a FACScalibur flow cytometer. Data were analyzed using CellQuest (BD Biosciences) and FlowJo (Tree Star Inc., Ashland, OR, USA) software. (Version 9.9.4).

[7] = test system: Oral Tumor Cells (SCC9, SCC4); experiment: MTT cell viability assay, average of OSCC lines SCC9 and SCC4; format: cell-based, human; conditions: Homo sapiens
Procedure: as §1, §2, §5

[8] = test system: B16-F10 (melanoma); experiment: MTT cell viability assay, B16-F10; format: cell-based; conditions: Mus musculus
Procedure: as §1, with “For all experiments, the compounds were solubilized in DMSO (Sigma-Aldrich) for a final concentration of 100 mM. From this dilution, other concentrations were made to carry out the cell viability assay. Carboplatin (Fauldcarbo®; Libbs Farmacêutica, São Paulo, SP, Brazil) was used as a control antitumor compound.” left out
as §4, §5

[9] = test system: SCC9 cells; experiment: Caspase 3/7 analysis (flow cytometry); format: cell-based, human; conditions: SCC9, 2 × IC50, 48 h
Procedure: For active caspase detection, 5 × 10^4 SCC9 cells were plated in a 24-well plate containing 1 mL of DMEM/F12 with 10% FBS per well. CellEvent™ Caspase-3/7 reagent (#R37111, Invitrogen) was diluted in culture medium according to the manufacturer’s instructions. Twenty-four hours after plating, cells were treated with Caspase-3/7 reagent and 2× IC50 of 9 or DMSO as a control. Cells were analyzed by flow cytometry after 48 h of treatment.

[10] = test system: mouse erythrocytes; experiment: Hemolytic activity in mouse erythrocytes; format: cell-based; conditions: mouse erythrocytes as printed
[11] = test system: SCC9 cells; experiment: MTT cell viability (cytotoxicity) assay, SCC9; format: cell-based, human; conditions: Homo sapiens
Procedure: as §1, §2, §3

[12] = test system: SCC9 cells; experiment: Cell cycle analysis (propidium iodide); format: cell-based, human; conditions: SCC9, 48 h
Procedure: as §6

[13] = test system: HT-29 (colon adenocarcinoma); experiment: MTT cell viability assay, HT-29; format: cell-based
Procedure: as §1, with “For all experiments, the compounds were solubilized in DMSO (Sigma-Aldrich) for a final concentration of 100 mM. From this dilution, other concentrations were made to carry out the cell viability assay. Carboplatin (Fauldcarbo®; Libbs Farmacêutica, São Paulo, SP, Brazil) was used as a control antitumor compound.” left out
as §4, §5

## COc1ccc(COC(=O)c2cc(OC)c(OC)c(OC)c2)cc1 [Compound 9, 4-Methoxy-benzyl 3,4,5–trimethoxybenzoate]
[1]
  pIC50: 4.30
[2]; read-out: Primary Gingival Fibroblast IC50
  pIC50: 3.13
[2]; read-out: Primary Gingival Fibroblast IC50 (µg/mL)
  IC50: 246 µg/mL
[3]; HEP G2
  pIC50: 5.18
[3]; Homo sapiens, HepG2, HEP G2
  pIC50: > 5.00
[4]
  annexin V single- and/or double-positive (PI+) labeling: ~ 17%
  increase in annexin V labeling versus control: four-fold increase
[5]
  hemolysis at 1000 µM: < 1%
[6]
  DNA fragmentation (SubG1 DNA content): ~ 21%
[7]
  pIC50: 4.32
[8]
  pIC50: 4.13
[9]
  Active caspase 3/7: ~ 66%
[10]
  hemolytic activity: did not reveal hemolytic activity
[11]; SCC-9, 48 h, read-out: SCC9 IC50 (µg/mL)
  IC50: 15.4 µg/mL
[11]; SCC-9, 48 h treatment, MTT, read-out: SCC9 IC50
  pIC50: 4.34
[12]
  Cycle Phase % G2/M: ~ 59%
[13]; HT-29
  pIC50: 5.14
[13]; Homo sapiens, HT-29, HT-29
  pIC50: > 5.00
